Results reported in ChEMBL document CHEMBL5614393, “Thioamides in medicinal chemistry and as small molecule therapeutic agents” (Eur J Med Chem, 2024).
In brackets after ≈: the same amount, converted by molar mass.

Experiments:
SARS-CoV-2 = test: Antiviral activity against SARS-CoV-2 infected in African green monkey Vero E6 cells incubated for 48 hrs by plaque reduction assay; format: functional, organism-based; conditions: Severe acute respiratory syndrome coronavirus 2, Vero C1008, 48 h
MCF7 [1] = test: Cytotoxicity against human MCF7 cells assessed as reduction in cell viability incubated for 48 hrs by MTT assay; format: functional, cell-based; conditions: MCF7, 48 h
[2] = Half life in mouse; format: ADME, organism-based; conditions: in vivo
[3] = molecular target: T1, NAD-dependent protein deacetylase sirtuin-2 (Homo sapiens, UniProt Q8IXJ6); test: Inhibition of C-terminal His-tagged SIRT2 (50 to 356 residues) (unknown origin) using Ac-Glu-Thr-Asp-Lys(Myr)-AMC as substrate by fluorescence based analysis
T1 sequence (Q8IXJ6 whole entry): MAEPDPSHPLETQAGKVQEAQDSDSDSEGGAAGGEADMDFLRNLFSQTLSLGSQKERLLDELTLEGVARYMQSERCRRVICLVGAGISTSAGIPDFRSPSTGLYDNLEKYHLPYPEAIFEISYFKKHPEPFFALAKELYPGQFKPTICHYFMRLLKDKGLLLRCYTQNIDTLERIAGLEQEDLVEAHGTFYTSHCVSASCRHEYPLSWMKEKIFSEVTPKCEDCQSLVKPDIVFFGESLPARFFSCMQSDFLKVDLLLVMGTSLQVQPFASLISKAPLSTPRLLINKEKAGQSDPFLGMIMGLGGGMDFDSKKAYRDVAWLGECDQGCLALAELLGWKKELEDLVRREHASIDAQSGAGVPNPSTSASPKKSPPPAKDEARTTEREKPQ

[4] = AUClast in mouse at 40 mg/kg, ip; format: ADME, organism-based; conditions: in vivo
MDA-MB-231 [5] = test: Antiproliferative activity against human MDA-MB-231 cells overexpressing PHGDH assessed as reduction in cell growth; format: functional, cell-based
[6] = Inhibition of urease (unknown origin)
[7] = molecular target: NAD-dependent protein deacylase sirtuin-5, mitochondrial (Homo sapiens, UniProt Q9NXA8); test: Inhibition of SIRT5 (unknown origin)
[8] = molecular target: NAD-dependent protein deacetylase sirtuin-3, mitochondrial (Homo sapiens, UniProt Q9NTG7); test: Inhibition of SIRT3 (unknown origin)
MCF7 [9] = test: Cytotoxicity against human MCF7 cells assessed as reduction in cell growth incubated for 24 hrs by MTT assay; format: functional, cell-based; conditions: MCF7, 24 h
HCT-116 [10] = test: Cytotoxicity against human HCT-116 cells assessed as reduction in cell growth incubated for 24 hrs by MTT assay; format: functional, cell-based; conditions: HCT-116, 24 h
Homo sapiens = species on record: Homo sapiens; test: Inhibition of NOS (unknown origin) at 15.6 uM relative to control
SiHa = test: Antiproliferative activity against human SiHa cells overexpressing PHGDH assessed as reduction in cell growth; format: functional, cell-based
HL-60 = test: Antiproliferative activity against human HL-60 cells overexpressing PHGDH assessed as reduction in cell growth; format: functional, cell-based
[11] = molecular target: NAD-dependent protein deacetylase sirtuin-1 (Homo sapiens, UniProt Q96EB6); test: Inhibition of SIRT1 (unknown origin)
[12] = molecular target: T1, NAD-dependent protein deacetylase sirtuin-2; test: Inhibition of SIRT2 (unknown origin)
A549 = test: Cytotoxicity against human A549 cells assessed as reduction in cell viability incubated for 24 hrs by MTT assay; format: functional, cell-based; conditions: A549, 24 h
HeLa = test: Cytotoxicity against human HeLa cells assessed as reduction in cell viability incubated for 24 hrs by MTT assay; format: functional, cell-based
Carbonic anhydrase 1 = Carbonic anhydrase 1 (Homo sapiens, UniProt P00915); test: Inhibition of human carbonic anhydrase I
Carbonic anhydrase 2 = Carbonic anhydrase 2 (Homo sapiens, UniProt P00918); test: Inhibition of human carbonic anhydrase II
Pseudomonas aeruginosa = test: Antibacterial activity against Pseudomonas aeruginosa ATCC 9027 assessed as reduction in bacterial cell growth incubated for 16 hrs by CLSI-based Mueller-Hinton broth dilution method; format: functional
[13] = tested on: Staphylococcus epidermidis; test: Antibacterial activity against Staphylococcus epidermidis ATCC 12228 assessed as reduction in bacterial cell growth incubated for 16 hrs by CLSI-based Mueller-Hinton broth dilution method; format: functional
Staphylococcus aureus = test: Antibacterial activity against Staphylococcus aureus ATCC 6538 assessed as reduction in bacterial cell growth incubated for 16 hrs by CLSI-based Mueller-Hinton broth dilution method; format: functional
[14] = Antioxidant activity assessed as DPPH radical scavenging activity; format: functional
HepG2 [15] = test: Antiproliferative activity against human HepG2 cells; format: functional, cell-based
MDA-MB-231 [16] = test: Antiproliferative activity against human MDA-MB-231 cells; format: functional, cell-based
MCF7 [17] = test: Antiproliferative activity against human MCF7 cells; format: functional, cell-based
HCT-116 [18] = test: Antiproliferative activity against human HCT-116 cells; format: functional, cell-based
[19] = molecular target: Epidermal growth factor receptor (Homo sapiens, UniProt P00533); test: Inhibition of EGFR (unknown origin)
HepG2 [20] = test: Cytotoxicity against human HepG2 cells assessed as reduction in cell growth by MTT colorimetric assay; format: functional, cell-based
MCF7 [21] = test: Cytotoxicity against human MCF7 cells assessed as reduction in cell growth by MTT colorimetric assay; format: functional, cell-based
PC-3 = test: Cytotoxicity against human PC-3 cells assessed as reduction in cell growth by MTT colorimetric assay; format: functional, cell-based
HCT-116 [22] = test: Growth inhibition of human HCT-116 cells by SRB assay; format: functional

Sequence of NAD-dependent protein deacetylase sirtuin-3, mitochondrial (Q9NTG7 whole entry): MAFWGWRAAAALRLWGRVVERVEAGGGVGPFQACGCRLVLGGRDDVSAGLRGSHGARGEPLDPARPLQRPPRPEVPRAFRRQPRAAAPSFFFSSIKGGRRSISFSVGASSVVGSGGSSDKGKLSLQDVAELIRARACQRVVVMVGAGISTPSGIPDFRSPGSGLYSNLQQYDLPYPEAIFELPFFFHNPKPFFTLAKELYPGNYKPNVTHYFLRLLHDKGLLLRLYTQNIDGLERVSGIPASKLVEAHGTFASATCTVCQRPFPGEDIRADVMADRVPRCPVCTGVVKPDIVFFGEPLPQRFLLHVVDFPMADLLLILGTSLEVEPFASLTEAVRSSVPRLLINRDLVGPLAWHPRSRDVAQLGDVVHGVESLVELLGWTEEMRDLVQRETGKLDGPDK
Sequence of NAD-dependent protein deacylase sirtuin-5, mitochondrial (Q9NXA8 whole entry): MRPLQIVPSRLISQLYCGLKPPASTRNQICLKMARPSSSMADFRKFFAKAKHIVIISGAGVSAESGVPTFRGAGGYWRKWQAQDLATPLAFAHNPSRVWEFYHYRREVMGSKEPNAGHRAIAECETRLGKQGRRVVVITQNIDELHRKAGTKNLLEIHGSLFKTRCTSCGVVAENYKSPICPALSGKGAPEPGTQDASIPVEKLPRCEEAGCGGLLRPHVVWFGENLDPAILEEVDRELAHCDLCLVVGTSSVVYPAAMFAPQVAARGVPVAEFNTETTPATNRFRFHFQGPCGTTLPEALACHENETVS
Sequence of Carbonic anhydrase 1 (P00915 whole entry): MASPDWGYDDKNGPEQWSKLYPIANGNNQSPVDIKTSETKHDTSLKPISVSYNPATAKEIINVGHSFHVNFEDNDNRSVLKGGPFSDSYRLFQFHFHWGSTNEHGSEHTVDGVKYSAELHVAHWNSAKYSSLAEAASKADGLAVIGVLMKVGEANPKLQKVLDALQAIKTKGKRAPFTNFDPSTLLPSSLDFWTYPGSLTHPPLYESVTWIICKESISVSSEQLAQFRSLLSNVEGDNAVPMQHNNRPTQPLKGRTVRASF
Sequence of NAD-dependent protein deacetylase sirtuin-1 (Q96EB6 whole entry): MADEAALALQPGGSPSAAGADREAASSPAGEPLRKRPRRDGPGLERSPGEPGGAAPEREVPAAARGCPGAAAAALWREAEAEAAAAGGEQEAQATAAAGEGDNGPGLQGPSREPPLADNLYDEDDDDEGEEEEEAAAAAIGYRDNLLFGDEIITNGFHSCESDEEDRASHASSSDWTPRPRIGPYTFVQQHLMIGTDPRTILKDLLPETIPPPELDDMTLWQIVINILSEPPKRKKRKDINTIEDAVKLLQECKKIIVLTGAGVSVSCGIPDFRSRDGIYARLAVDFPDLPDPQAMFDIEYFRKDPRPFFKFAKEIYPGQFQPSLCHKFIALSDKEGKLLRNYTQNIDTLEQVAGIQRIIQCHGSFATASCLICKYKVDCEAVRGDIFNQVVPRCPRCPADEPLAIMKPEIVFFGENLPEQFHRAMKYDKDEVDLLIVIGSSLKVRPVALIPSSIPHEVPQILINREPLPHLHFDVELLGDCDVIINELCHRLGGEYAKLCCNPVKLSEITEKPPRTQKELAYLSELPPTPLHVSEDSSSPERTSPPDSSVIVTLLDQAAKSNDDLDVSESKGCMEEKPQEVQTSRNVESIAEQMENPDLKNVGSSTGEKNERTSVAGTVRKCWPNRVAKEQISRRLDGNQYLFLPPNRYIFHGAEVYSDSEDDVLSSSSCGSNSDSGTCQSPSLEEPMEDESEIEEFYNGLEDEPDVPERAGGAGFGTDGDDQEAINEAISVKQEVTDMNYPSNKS
Sequence of Epidermal growth factor receptor (P00533 whole entry): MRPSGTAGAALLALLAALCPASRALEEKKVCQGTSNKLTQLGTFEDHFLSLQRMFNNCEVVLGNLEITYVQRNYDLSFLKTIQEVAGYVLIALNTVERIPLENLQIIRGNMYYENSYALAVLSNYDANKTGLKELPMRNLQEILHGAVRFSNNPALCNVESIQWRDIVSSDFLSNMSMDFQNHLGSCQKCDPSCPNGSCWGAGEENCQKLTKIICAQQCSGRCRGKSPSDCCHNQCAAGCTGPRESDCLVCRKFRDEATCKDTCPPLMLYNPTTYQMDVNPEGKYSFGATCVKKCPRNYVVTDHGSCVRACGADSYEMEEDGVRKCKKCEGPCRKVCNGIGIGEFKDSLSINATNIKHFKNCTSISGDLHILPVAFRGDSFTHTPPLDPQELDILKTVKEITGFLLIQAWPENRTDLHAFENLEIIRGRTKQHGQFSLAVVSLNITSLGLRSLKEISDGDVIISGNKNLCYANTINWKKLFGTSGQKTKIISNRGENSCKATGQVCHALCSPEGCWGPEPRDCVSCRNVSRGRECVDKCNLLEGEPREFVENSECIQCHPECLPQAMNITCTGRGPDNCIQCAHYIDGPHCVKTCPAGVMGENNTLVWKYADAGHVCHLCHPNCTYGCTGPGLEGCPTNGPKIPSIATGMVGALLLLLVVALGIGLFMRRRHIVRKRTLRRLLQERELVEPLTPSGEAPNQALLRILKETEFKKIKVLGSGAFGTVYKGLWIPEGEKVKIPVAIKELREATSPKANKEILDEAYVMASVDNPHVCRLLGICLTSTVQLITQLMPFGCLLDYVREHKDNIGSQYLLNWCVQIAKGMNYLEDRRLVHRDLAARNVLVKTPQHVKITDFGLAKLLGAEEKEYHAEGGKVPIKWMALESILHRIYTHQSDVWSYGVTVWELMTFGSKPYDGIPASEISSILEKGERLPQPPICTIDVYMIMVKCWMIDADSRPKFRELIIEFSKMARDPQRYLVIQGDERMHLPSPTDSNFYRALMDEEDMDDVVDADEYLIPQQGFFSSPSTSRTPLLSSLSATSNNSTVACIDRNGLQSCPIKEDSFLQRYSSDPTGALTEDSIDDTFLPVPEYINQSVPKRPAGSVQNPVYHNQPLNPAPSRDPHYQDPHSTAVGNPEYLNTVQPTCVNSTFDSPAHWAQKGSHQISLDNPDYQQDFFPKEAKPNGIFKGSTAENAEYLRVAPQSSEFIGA

In the case of `COc1cccc2[nH]c(C(=O)N[C@@H](CC(C)C)C(=O)N[C@@H](C[C@@H]3CCNC3=O)C(=O)c3nc4ccccc4s3)cc12`, the EC50 (SARS-CoV-2) is reported as 0.29 µM.
With `NC(=O)N1N=C(c2ccc(Cl)cc2)CC1/C=C/c1ccccc1` (configuration not stated) the IC50 (MCF7 [1]) was 15.1 µM.
`COc1ccc(F)c2[nH]c(C(=O)N[C@@H](CC(C)C)C(=S)N[C@@H](C[C@@H]3CCNC3=O)C(=O)c3nc4c(F)cccc4s3)cc12` gave an EC50 (SARS-CoV-2) of 0.34 µM.
`CCCCCCCCCCCCNC(=S)NCCCC[C@H](NS(C)(=O)=O)C(=O)N[C@H](C)C(=O)NCCCCNC(=N)N` showed a half-life [2] of less than 2 h and an IC50 [3] of 0.1 µM.
In the case of `Cc1cc(C)nc(NC(=S)N2CCN(Cc3ccc(C(F)(F)F)cc3)CC2)c1`, the AUClast [4] is reported as 147 µg·h/mL and the IC50 (MDA-MB-231 [5]) is reported as 8 µM.
For `COc1ccc(NC(=S)N2CCc3ccccc3C2)cc1`, the IC50 [6] was 11.2 µM.
With `CCCCCCCCCCCCCC(=S)NCCCCC(NC(=O)OCc1ccccc1)C(=O)Nc1ccccc1` (configuration not stated) the IC50 [7] was greater than 200 µM and the IC50 [8] was greater than 200 µM.
`NC(=S)N1N=C(c2ccc(Cl)cc2)CC1/C=C/c1ccccc1` (configuration not stated) gave an IC50 (MCF7 [1]) of 7.18 µM.
`COc1ccc(F)c2[nH]c(C(=O)N[C@@H](CC(C)C)C(=O)N[C@@H](C[C@@H]3CCNC3=O)C(=O)c3nc4c(F)cccc4s3)cc12` gave an EC50 (SARS-CoV-2) of 0.29 µM.
In the case of `Cc1cc(C)c2c(n1)nn1c(C)c(C(=S)Nc3ccccc3)nnc21`, the IC50 (MCF7 [9]) is reported as 11.7 µM and the IC50 (HCT-116 [10]) is reported as 12.6 µM.
`O=[N+]([O-])c1ccc(N2CCN(C(=S)NCc3nc4ccccc4s3)CC2)cc1` gave an inhibition (Homo sapiens) of 67%.
Work on `Cc1cccc(C)c1NC(=S)N1CCc2ccccc2C1` yielded an IC50 [6] of 11.2 µM.
`O=C(C(=S)N1CCOCC1)c1ccc(Cl)cc1` gave an IC50 (SiHa) of 6.6 µM, an IC50 (HL-60) of 15.5 µM and an IC50 (MDA-MB-231 [5]) greater than 100 µM.
For `CCCCCCCCCCCCCC(=O)NCCCCC(NC(=O)OCc1ccccc1)C(=O)Nc1ccccc1` (configuration not stated), the IC50 [7] was greater than 200 µM, the IC50 [11] was greater than 200 µM and the IC50 [8] was greater than 200 µM. It also gave an IC50 [12] greater than 200 µM.
Work on `CN(C)c1ccc(C2CC(c3ccc(Cl)cc3)=NN2C(N)=S)cc1` (configuration not stated) yielded an IC50 (A549) of 13.5 µM and an IC50 (HeLa) of 17.5 µM.
In the case of `O=C(O)c1cn(C2CC2)c2cc(N3CCN(C(=S)c4cccc([N+](=O)[O-])c4)CC3)c(F)cc2c1=O`, the IC50 [6] is reported as 5.87 µM.
Work on `COc1ccc(-c2cc(-c3ccc(N)cc3)nn2C(N)=S)cc1OC` yielded an IC50 (Carbonic anhydrase 1) of 0.00513 µM and an IC50 (Carbonic anhydrase 2) of 0.0205 µM.
For `O=C(O)c1cn(C2CC2)c2cc(N3CCN(C(=S)c4cccc(F)c4)CC3)c(F)cc2c1=O`, the MIC50 (Pseudomonas aeruginosa) was less than 3 ng/mL, the MIC50 [13] was less than 3 ng/mL and the IC50 [6] was 4.08 µM. The MIC50 (Staphylococcus aureus) was less than 3 ng/mL.
In the case of `COc1cc(-c2cc(-c3ccc(N)cc3)nn2C(N)=S)cc(OC)c1OC`, the IC50 (Carbonic anhydrase 1) is reported as 0.0122 µM.
For `CC(C)(C)[C@H](NC(=O)C(F)(F)F)C(=O)N1C[C@H]2[C@@H]([C@H]1C(=O)N[C@H](C#N)C[C@H]1CCNC1=O)C2(C)C`, the EC50 (SARS-CoV-2) was 0.94 µM.
With `FC(F)(F)c1ccc(NC(=S)N2CCc3ccccc3C2)cc1` the IC50 [6] was 11.2 µM.
In the case of `CN(C)c1ccc(C2CC(c3cccs3)=NN2C(N)=S)cc1` (configuration not stated), the IC50 [14] is reported as 632 ng/mL (≈ 1910 nM).
With `O=C(O)c1cn(C2CC2)c2cc(N3CCN(C(=S)c4ccc([N+](=O)[O-])cc4)CC3)c(F)cc2c1=O` the IC50 [6] was 2.05 µM.
`COc1ccc(C2=NN(C(N)=O)C(/C=C/c3ccccc3)C2)cc1` (configuration not stated) showed an IC50 (MCF7 [1]) of 37.7 µM.
Work on `NC(=O)N1N=C(c2ccccc2)CC1/C=C/c1ccccc1` (configuration not stated) yielded an IC50 (MCF7 [1]) of 19.1 µM.
`COc1ccc(C2=NN(C(N)=S)C(c3ccc(Cl)cc3)C2)cc1` (configuration not stated) showed an IC50 (HepG2 [15]) of 6.08 µM, an IC50 (MDA-MB-231 [16]) of 8.5 µM and an IC50 (MCF7 [17]) of 9.37 µM. It also gave an IC50 (HCT-116 [18]) of 5.89 µM.
With `COc1ccc(C2=NN(C(N)=S)C(/C=C/c3ccccc3)C2)cc1` (configuration not stated) the IC50 (MCF7 [1]) was 22.4 µM.
For `CCCCCCCCCCCCCC(=S)NCCCC[C@H](NS(C)(=O)=O)C(=O)N[C@H](C)C(=O)NCCCCNC(=N)N`, the half-life [2] was greater than 2 h and the IC50 [3] was 0.09 µM.
Work on `NC(=S)N1N=C(c2ccccc2)CC1/C=C/c1ccccc1` (configuration not stated) yielded an IC50 [19] of 0.34 µM and an IC50 (MCF7 [1]) of 4.53 µM.
Work on `COc1ccc2ccc3c(c2c1)C(c1c(F)cccc1F)C(C(N)=S)=C(N)O3` (configuration not stated) yielded an IC50 (HepG2 [20]) of 4.5 µM, an IC50 (MCF7 [21]) of 5.4 µM and an IC50 (PC-3) of 1.1 µM.
With `COc1cc(C2CC(c3ccccc3)=NN2C(N)=S)cc(OC)c1OC` (configuration not stated) the GI50 (HCT-116 [22]) was 0.15 µM.
